# Laboratory results as given in a melting point compilation (Tetko et al.; mined from patent text by program, amines drawn as free bases though some values may be those of a salt).
row,melting point,SMILES
1,100 to 102 °C,CCCCCCCN(CCN1CCN(CCSc2nc3ncccc3o2)CC1)C(=O)Nc1c(C(C)C)cc(O)cc1C(C)C
2,187 to 189 °C,COC(=O)CCCNC(=O)CNS(=O)(=O)c1ccc2ccccc2c1
3,105 to 106 °C,CCOc1cc(OCCCCc2cc(-c3ccc(C(F)(F)F)cc3)no2)ccc1CCC(=O)O
4,203 to 205 °C,Clc1c2ccccc2nc2c1c(CBr)nn2-c1ccccn1
5,194 °C,Oc1ccc2c(c1)nc(NC1CCN(CCNc3ncccn3)CC1)n2Cc1ccc(F)cc1
6,259 to 261 °C,CCCn1cc(C(=O)O)c(=O)c2cnc(N3CCNCC3)nc21
7,249 to 251 °C,O=C(c1ccc(F)cc1)c1nccc(O)c1O
8,158 to 160 °C,O=C1CCc2c(-c3ccncc3)sc(-c3ccc(C(F)(F)F)cc3)c21
9,100 to 104 °C,CCCCCCCCCCCCCCNC(=O)Oc1ccc([N+](=O)[O-])cc1OC(=O)NCCCCCCCCCCCCCC
10,186 to 187 °C,CC1(CNC(=O)CCl)OCCc2c1[nH]c1ccccc21 (stereo unspecified)
11,185 to 187 °C,CCCCc1ncc(/C=C(\Cc2cccs2)C(N)=O)n1Cc1cccc(Cl)c1Cl
12,184 °C,CC(C)c1c(C(=O)c2ccccc2)n(COCc2ccccc2)c(=O)[nH]c1=O
13,151 to 154 °C,O=C(O)c1csnc1-c1cc(C(F)(F)F)cc(C(F)(F)F)c1
14,76 to 77 °C,CCC(C)c1nn(-c2ccc(C(F)(F)F)cn2)cc1CO (stereo unspecified)
15,220 to 222 °C,Nc1ncc(Cc2csc3ccccc23)c(N)n1
16,111 to 113 °C,O=C(CCC1=C(n2nc(-c3c(-c4ccccc4)nn4ccccc34)ccc2=O)CCCC1)OCc1ccccc1
17,154 to 155 °C,Cc1noc(NS(=O)(=O)c2ccc(-c3ccccc3)cc2)c1C
18,84 to 86 °C,CCC(=O)NCC1CC1c1cccc2nscc12 (stereo unspecified)
19,210 to 212 °C,CCC(=O)Nc1nc(CC(=O)Nc2nnc(C(C)(C)C)s2)cs1

row,melting point,SMILES
1,189 °C,COC(=O)C1=C(C)NN=C(c2ccccc2)C1c1cccc(Cl)c1 (stereo unspecified)
2,116 to 118 °C,Cc1ccc(NS(=O)(=O)c2cc(S(=O)(=O)Nc3ccc(C)cc3C)c3cc(O)ccc3c2)c(C)c1
3,73 to 74 °C,O=C(OC1CCN(Cc2ccccc2)CC1)c1ccccc1I
4,188 °C,COc1ccc(-c2cc3ccccc3[nH]2)cc1OC
5,111 to 113 °C,O=C(C(=O)c1cccc(Br)c1)c1cc[nH]c1
6,205 to 210 °C,CS(=O)(=O)Nc1cccc(Nc2nc(NCCc3c[nH]cn3)c3nc[nH]c3n2)c1
7,102 to 104 °C,O=C(O)c1nnc2ccc(NCCCN3CCC(OC(c4ccccc4)c4ccccc4)CC3)nn12
8,143 to 145 °C,NS(=O)(=O)NC(=O)CNC(=O)NCCCCC1CCSS1 (stereo unspecified)
9,> 250 °C,O=C(Nc1cccc2c3c(oc12)CCS(=O)C3)c1c(Cl)cccc1Cl (stereo unspecified)
10,126 °C,CC(=O)c1ccc2c(c1)C(=O)C=C(C)C2=O
11,107 to 108 °C,CCCCOc1ccc(C(=O)c2ccc(OCCBr)cc2)cc1
12,108 to 110 °C,[N-]=[N+]=N[C@@H](C(=O)O)C(c1ccccc1)c1ccccc1
13,150 to 152 °C,CCOc1ccc(-c2ccc3c(c2)C=C(C(=O)Nc2ccc(CN(C)C4CCOCC4)cc2)CCN3C)cc1
14,47 to 48.5 °C,CCCCCC(=O)NC1(OCC)CC1
15,259 to 261 °C,CC1COc2c(F)c(F)cc3c(=O)[nH]c(=O)n1c23 (stereo unspecified)
16,173 to 177 °C,O=C(O)c1nc2ccc(OCCCN3CCC(OC(c4ccccc4)c4ccccc4)CC3)nn2n1
17,107 to 110 °C,Cc1cc(=O)c2c(o1)CCOC2
18,115 to 116 °C,CCC(=O)Nc1cc(-c2sc(C(C)O)nc2-c2cccc(C)c2)ccn1 (stereo unspecified)
19,147 to 149 °C,COC(=O)N(C)c1cn2cc(Sc3ccccc3)ccc2n1

# The remaining lines, values behind:
row,SMILES,melting point
1,CC(C)(C)C(O)(CC(Br)=CBr)Cn1cncn1 (stereo unspecified),81 °C
2,COc1ccc(Cl)cc1C(=O)NCCc1ccc(CC(C)(C)C(=O)O)cc1,138 to 141 °C
3,FC(F)(F)c1ccc(/C=C/C=C/[C@H]2CC[C@H](SCc3ccc(Cl)cc3)CC2)cc1,142 to 144 °C
4,COC(=O)Cn1c(=S)sc2ccccc21,127 to 128 °C
5,CCNc1nc(Cc2ccc(OC)c(OC)c2)nc2sc(C#N)c(C)c12,125 to 126 °C
6,CNc1c(S(=O)(=O)C(F)(F)F)c(C#N)nn1-c1c(Cl)cc(C(F)(F)F)cc1Cl,227 °C
7,CCCCCCCCCCCCCCOc1cn(Cc2ccccc2)c(CBr)cc1=O,135 to 137 °C
8,CN(C(=O)N1CCN(C[C@@]2(C)Cn3cc([N+](=O)[O-])nc3O2)CC1)c1ccc(C(F)(F)F)cc1,100 to 102 °C
9,COc1ccc2[nH]nc(N3CCN(C)CC3)c2c1,158 to 160 °C
10,CC(=O)OCCC1CC(=O)N1 (stereo unspecified),44 to 47 °C
11,CCC1C(CC)N1S(=O)(=O)c1ccc(C)cc1 (stereo unspecified),69 to 70 °C
12,CC(C)CCN1CNC(=O)C12CCN(Cc1ccccc1)CC2,139 to 140 °C
13,O=S(=O)(CCCl)C(c1ccccc1)S(=O)(=O)CCCl,106 to 108 °C
14,Cc1cc(-c2cc(C(F)(F)F)n3ncc(C(=O)Nc4nc(C)c(S(N)(=O)=O)s4)c3n2)ccc1C(F)(F)F,309 °C
15,Cn1c(C(=O)NN)nc2ccccc21,156 to 159 °C
16,O=C1CC(c2cccc(-n3ccnc3)c2)=Nc2cc(N3CCC(O)CC3)c(-c3ccc(F)cc3)cc2N1,238 to 240 °C
17,c1ccc2c(c1)CCCc1c-2n[nH]c1-c1ccncc1,217 to 219 °C

row,SMILES,melting point
1,COc1cccc2c1nc(C(F)F)n2-c1nc(-c2ccc(N)nc2)nc(N2CCOCC2)n1,259 to 261 °C
2,Nc1ncnc2c1c(-c1ccc(Oc3ccccc3)cc1)cn2[C@H]1CC[C@@H](N2CCCCC2)CC1,192 to 195 °C
3,OCc1nc2cc(CN3CCN(C(c4ccccc4)c4ccccc4)CC3)ccc2[nH]1,137 °C
4,CCN(CC)CCOc1ccc(Nc2ncc3c(n2)N(C)C(=O)N(C(C)(C)C)C3)cc1,130 °C
5,CCc1cc(-c2c3ccccc3cc3oc(C)c(C)c23)cc(CC)c1OS(=O)(=O)c1ccc(C(=O)O)c(O)c1,222 to 227 °C
6,COC(=O)CC(C)(C)C(=O)c1ccc2c(c1)CC(N1C(=O)c3ccccc3C1=O)C2 (stereo unspecified),115 to 117 °C
7,COc1ccc(C(=O)Nc2ccccc2)cc1NS(=O)(=O)c1cccc2ccccc12,212 to 213 °C
8,CS(=O)(=O)c1ccc(C(Cc2ccc(F)cc2)C(=O)Nc2nc3ccccc3o2)cc1 (stereo unspecified),109 to 110 °C
9,COc1ccc(C(=O)Nc2cc(N)ccc2Br)cc1OC,154 to 155 °C
10,COC(=O)Cc1ccc2c(c1)CCN2C(C)=O,104 to 105 °C
11,O=C(O)Cn1c(-c2cccc(Br)c2)nc2cccnc21,247 to 249 °C
12,COc1ccc(Cc2ncc(CN3CCN(c4ccccc4OC)CC3)c3cc(OC)c(OC)cc23)cc1OC,117 to 119 °C
13,O=C(c1ccccc1)c1cc2ccccc2o1,88 to 90 °C
14,CC(=O)N1CCC(CCC(=O)c2cc3c4c(c2)CC(=O)N4CCC3)CC1,119 to 120 °C
15,Cc1ccc2c(c1)c(Cc1nc3cc(C(F)(F)F)ccc3s1)cn2CC(=O)O,248 to 249 °C
16,CCC12CCC3C4CCC(=O)C=C4CCC3C1CCC2OC(O)C(Cl)(Cl)Cl (stereo unspecified),175 to 176 °C
